Assay results taken from PMC9814781, “Structure-based design of a dual-warhead covalent inhibitor of FGFR4” (Communications Chemistry, 2022).
Read-outs that look alike come from different tables or passages of the source.

What was measured:
Hep3B = Hep3B viability assay; format: cell-based; conditions: Homo sapiens, FGF19-overexpressing HCC cell line, 72 h, CCK-8
Protocol: Hep3B (ThermoFisher Scientific, 11965, America) and Huh7 (ThermoFisher Scientific, 11095, America) cells were seeded into 96-well plates at 4000 cells/well and 2000 cells/well, respectively. […] Cell viabilities were measured by a CCK-8 kit (Vazyme, China). The IC50 values were calculated using GraphPad Prism software.

[1] = In vitro plasma stability study; format: in vitro ADME; conditions: for half-life at 2 µg/mL: 37°C, read-out: in vitro t1/2 (converted); for R squared / Slope: linear regression 0–10 h
Protocol: The incubation was terminated by the addition of 300 µL of acetonitrile containing 50 ng/mL roblitinib as internal standard. After vortex and centrifugation, the supernatant was analyzed using ultraperformance liquid chromatography-tandem mass spectrometry.

FER = FER (Homo sapiens, UniProt P16591); assay: Kinase selectivity profiling
TRKA = TRKA (Homo sapiens, UniProt P04629); assay: Kinase selectivity profiling
FMS (CSF1R) = FMS (CSF1R) (Homo sapiens, UniProt P07333); assay: Kinase selectivity profiling
FGFR3 = FGFR3 (Homo sapiens, UniProt P22607); assay: Kinase selectivity profiling
p38α = p38α (Homo sapiens, UniProt Q16539); assay: Kinase selectivity profiling
TRKC(NTRK3) = TRKC(NTRK3) (Homo sapiens, UniProt Q16288); assay: Kinase selectivity profiling
NEK9 = NEK9 (Homo sapiens, UniProt Q8TD19); assay: Kinase selectivity profiling
CSK = CSK (Homo sapiens, UniProt P41240); assay: Kinase selectivity profiling
PAK2 = PAK2 (Homo sapiens, UniProt Q13177); assay: Kinase selectivity profiling
HGK = HGK (Homo sapiens, UniProt O95819); assay: Kinase selectivity profiling
DAPK1 = DAPK1 (Homo sapiens, UniProt P53355); assay: Kinase selectivity profiling
IKK-alpha(CHUK) = IKK-alpha(CHUK) (Homo sapiens, UniProt O15111); assay: Kinase selectivity profiling
PYK2 = PYK2 (Homo sapiens, UniProt Q14289); assay: Kinase selectivity profiling
BRK = BRK (Homo sapiens, UniProt Q13882); assay: Kinase selectivity profiling
SGK3 = SGK3 (Homo sapiens, UniProt Q96BR1); assay: Kinase selectivity profiling
INSR = INSR (Homo sapiens, UniProt P06213); assay: Kinase selectivity profiling
MAP2K1 = MAP2K1 (Homo sapiens, UniProt Q02750); assay: Kinase selectivity profiling
PLK1 = PLK1 (Homo sapiens, UniProt P53350); assay: Kinase selectivity profiling
NPM1-ALK = NPM1-ALK (Homo sapiens, UniProt P06748+Q9UM73); assay: Kinase selectivity profiling
ALK4 = ALK4 (Homo sapiens, UniProt P36896); assay: Kinase selectivity profiling
GSK3β = GSK3β (Homo sapiens, UniProt P49841); assay: Kinase selectivity profiling
AKT3 = AKT3 (Homo sapiens, UniProt Q9Y243); assay: Kinase selectivity profiling
BRAF = BRAF (Homo sapiens, UniProt P15056); assay: Kinase selectivity profiling
CDK1/CycA2 = CDK1/CycA2 (Homo sapiens, UniProt P06493); assay: Kinase selectivity profiling
DYRK1A = DYRK1A (Homo sapiens, UniProt Q13627); assay: Kinase selectivity profiling
EPHB2 = EPHB2 (Homo sapiens, UniProt P29323); assay: Kinase selectivity profiling
IRR = IRR (Homo sapiens, UniProt P14616); assay: Kinase selectivity profiling
TAOK2 = TAOK2 (Homo sapiens, UniProt Q9UL54); assay: Kinase selectivity profiling
RON = RON (Homo sapiens, UniProt Q04912); assay: Kinase selectivity profiling
KDR (VEGFR2) = KDR (VEGFR2) (Homo sapiens, UniProt P35968); assay: Kinase selectivity profiling
CDK5/p25NCK = CDK5/p25NCK (Homo sapiens, UniProt Q00535); assay: Kinase selectivity profiling
AXL = AXL (Homo sapiens, UniProt P30530); assay: Kinase selectivity profiling
CK2α2/β = CK2α2/β (Homo sapiens, UniProt P19784); assay: Kinase selectivity profiling
YSK1 = YSK1 (Homo sapiens, UniProt O00506); assay: Kinase selectivity profiling
TNIK = TNIK (Homo sapiens, UniProt Q9UKE5); assay: Kinase selectivity profiling

Chain of CSK (P41240 whole entry): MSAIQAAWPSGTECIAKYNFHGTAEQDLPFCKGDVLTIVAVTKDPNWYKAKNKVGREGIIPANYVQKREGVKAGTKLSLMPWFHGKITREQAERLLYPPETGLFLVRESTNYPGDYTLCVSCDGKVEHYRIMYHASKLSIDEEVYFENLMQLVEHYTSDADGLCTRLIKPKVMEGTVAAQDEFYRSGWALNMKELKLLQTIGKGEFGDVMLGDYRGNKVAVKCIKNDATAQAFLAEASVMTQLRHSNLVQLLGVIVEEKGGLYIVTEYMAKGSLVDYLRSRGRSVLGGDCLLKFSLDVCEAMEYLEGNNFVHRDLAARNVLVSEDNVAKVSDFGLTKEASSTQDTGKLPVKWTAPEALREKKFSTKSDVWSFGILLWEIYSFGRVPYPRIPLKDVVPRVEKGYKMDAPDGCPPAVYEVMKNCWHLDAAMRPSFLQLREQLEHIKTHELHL
Chain of YSK1 (O00506 whole entry): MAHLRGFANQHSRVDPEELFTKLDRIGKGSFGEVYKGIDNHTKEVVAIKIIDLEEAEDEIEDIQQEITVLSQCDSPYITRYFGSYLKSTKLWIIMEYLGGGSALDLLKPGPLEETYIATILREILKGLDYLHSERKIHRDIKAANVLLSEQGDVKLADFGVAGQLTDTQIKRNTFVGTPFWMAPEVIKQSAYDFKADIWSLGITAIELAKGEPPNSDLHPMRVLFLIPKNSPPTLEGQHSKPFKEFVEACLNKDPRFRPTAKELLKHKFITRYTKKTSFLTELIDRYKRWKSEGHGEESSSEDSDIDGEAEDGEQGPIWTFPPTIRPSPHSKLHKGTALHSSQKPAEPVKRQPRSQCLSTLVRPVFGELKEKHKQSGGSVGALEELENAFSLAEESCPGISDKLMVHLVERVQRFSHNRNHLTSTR
Chain of RON (Q04912 25-1400): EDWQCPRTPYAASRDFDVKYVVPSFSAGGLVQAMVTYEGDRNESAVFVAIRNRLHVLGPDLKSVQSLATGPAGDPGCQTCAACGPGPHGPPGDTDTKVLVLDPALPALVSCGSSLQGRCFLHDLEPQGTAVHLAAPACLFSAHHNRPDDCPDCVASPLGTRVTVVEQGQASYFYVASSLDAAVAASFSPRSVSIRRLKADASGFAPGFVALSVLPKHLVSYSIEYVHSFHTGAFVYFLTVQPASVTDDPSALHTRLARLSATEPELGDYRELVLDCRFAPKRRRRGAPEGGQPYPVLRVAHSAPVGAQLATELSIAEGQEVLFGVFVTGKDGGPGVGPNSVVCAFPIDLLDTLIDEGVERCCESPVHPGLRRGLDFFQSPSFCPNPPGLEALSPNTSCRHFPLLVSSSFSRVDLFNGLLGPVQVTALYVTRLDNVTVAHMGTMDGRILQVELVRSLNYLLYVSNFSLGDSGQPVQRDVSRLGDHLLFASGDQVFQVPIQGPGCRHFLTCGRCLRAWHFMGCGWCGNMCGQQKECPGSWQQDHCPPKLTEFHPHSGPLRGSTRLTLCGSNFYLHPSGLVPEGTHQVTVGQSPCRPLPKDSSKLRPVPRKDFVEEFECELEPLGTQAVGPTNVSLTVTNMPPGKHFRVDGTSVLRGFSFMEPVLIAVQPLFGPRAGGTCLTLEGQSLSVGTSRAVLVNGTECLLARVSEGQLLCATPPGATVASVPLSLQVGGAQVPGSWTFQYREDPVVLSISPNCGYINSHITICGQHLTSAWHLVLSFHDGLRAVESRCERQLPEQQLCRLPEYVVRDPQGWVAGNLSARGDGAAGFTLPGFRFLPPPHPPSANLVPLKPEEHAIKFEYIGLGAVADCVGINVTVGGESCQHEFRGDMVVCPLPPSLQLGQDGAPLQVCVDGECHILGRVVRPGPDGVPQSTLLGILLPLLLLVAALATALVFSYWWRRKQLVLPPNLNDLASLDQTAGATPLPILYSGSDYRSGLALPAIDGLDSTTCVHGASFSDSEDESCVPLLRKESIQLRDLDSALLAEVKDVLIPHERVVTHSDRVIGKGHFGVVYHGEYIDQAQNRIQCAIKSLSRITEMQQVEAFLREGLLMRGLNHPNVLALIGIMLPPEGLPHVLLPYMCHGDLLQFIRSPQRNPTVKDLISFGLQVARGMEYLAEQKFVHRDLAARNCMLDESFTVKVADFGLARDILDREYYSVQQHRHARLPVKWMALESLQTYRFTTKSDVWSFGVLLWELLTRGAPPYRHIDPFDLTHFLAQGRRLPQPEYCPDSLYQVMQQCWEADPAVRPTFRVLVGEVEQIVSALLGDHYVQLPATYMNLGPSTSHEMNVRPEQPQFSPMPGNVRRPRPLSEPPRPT
Chain of CDK5/p25NCK (Q00535 whole entry): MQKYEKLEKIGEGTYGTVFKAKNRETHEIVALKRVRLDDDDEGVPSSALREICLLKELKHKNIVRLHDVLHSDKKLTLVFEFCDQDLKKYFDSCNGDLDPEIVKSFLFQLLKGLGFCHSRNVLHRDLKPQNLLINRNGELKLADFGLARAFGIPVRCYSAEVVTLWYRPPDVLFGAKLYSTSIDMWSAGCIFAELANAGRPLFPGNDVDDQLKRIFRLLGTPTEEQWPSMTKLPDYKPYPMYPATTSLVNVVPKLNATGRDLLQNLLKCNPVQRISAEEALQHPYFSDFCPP
Chain of CDK5/p25NCK (Q15078 99-307 partner limits assumed): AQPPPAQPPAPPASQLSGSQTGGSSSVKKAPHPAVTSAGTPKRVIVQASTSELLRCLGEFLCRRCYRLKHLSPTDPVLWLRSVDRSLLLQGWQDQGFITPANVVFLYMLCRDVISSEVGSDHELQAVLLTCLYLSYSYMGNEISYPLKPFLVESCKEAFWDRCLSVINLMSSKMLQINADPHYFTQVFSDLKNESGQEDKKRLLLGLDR
Chain of AKT3 (Q9Y243 whole entry): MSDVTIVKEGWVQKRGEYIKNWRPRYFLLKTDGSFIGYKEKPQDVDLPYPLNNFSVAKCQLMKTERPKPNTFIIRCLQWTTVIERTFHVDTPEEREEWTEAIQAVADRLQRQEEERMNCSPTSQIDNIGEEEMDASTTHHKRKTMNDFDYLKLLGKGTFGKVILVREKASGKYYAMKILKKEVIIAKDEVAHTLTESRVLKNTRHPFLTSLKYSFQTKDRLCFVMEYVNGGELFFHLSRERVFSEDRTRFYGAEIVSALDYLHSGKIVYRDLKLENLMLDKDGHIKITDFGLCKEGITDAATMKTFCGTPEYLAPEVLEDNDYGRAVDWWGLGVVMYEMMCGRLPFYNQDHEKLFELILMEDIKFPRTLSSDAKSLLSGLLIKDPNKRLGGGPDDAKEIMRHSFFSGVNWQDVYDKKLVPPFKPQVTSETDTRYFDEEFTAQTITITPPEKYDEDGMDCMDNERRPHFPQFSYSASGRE
Chain of NPM1-ALK (P06748+Q9UM73 fused): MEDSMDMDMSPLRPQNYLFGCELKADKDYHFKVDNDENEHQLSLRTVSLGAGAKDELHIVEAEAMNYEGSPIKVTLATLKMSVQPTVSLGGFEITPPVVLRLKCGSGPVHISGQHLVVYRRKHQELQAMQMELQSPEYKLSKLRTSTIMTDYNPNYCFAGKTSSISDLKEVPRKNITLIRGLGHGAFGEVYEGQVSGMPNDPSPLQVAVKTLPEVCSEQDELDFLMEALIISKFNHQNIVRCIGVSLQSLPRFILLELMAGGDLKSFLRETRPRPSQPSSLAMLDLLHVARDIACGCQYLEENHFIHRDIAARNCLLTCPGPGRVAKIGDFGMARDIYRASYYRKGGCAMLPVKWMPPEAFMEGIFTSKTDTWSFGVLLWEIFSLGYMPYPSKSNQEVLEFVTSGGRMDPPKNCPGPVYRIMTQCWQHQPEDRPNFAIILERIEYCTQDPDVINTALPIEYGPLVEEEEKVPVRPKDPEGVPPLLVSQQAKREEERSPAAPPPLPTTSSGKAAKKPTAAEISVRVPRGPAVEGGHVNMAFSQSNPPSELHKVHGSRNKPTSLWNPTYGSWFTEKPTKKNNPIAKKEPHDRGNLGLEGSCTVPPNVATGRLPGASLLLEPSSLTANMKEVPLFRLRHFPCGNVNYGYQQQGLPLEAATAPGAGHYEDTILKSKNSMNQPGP
Chain of ALK4 (P36896 24-505): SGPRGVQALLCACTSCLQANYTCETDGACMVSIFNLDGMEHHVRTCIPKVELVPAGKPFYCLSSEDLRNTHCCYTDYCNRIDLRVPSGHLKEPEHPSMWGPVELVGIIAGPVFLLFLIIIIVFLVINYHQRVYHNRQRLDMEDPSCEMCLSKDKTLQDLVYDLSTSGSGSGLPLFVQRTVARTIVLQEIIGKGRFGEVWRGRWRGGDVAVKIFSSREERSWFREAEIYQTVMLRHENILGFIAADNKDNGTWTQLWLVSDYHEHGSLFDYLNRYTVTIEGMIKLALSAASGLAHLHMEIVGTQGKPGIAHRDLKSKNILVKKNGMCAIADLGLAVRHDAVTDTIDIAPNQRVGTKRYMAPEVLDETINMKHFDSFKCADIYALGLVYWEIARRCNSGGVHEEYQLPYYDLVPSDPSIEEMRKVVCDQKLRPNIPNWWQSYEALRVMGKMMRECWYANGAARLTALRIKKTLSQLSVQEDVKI
Chain of PLK1 (P53350 whole entry): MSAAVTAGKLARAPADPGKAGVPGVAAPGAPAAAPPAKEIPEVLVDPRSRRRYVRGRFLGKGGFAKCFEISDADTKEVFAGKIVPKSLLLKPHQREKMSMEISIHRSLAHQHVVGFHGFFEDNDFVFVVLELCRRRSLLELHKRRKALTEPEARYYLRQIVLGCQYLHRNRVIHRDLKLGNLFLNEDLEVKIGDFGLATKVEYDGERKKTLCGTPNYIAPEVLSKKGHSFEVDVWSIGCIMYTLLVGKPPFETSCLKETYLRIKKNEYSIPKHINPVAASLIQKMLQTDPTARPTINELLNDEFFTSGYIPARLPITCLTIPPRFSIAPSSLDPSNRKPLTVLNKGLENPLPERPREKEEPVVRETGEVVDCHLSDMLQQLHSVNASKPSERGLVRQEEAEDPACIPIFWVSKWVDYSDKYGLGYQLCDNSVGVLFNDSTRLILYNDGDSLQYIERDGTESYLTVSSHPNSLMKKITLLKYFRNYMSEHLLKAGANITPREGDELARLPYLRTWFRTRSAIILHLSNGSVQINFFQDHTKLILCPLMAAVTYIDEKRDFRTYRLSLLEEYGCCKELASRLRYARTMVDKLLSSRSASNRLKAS

SMILES: C=CC(=O)Nc1ccccc1Nc1ncc2c(n1)N(CCCN1CCN(C(=O)C=C)CC1)C(=O)N(c1cc(OC)cc(OC)c1)C2 [CXF-009]
- IC50 (Hep3B): 895 nM
- half-life at 2 µg/mL ([1]; human plasma): 3.73 h
- R squared ([1]; human plasma): 0.9969
- Slope ([1]; human plasma): −0.1859
- half-life at 2 µg/mL ([1]; rat plasma): 4.99 h
- R squared ([1]; rat plasma): 0.9935
- Slope ([1]; rat plasma): −0.1388
- inhibition at 1 µM (FER): 37.1%
- inhibition at 1 µM (TRKA): 26.2%
- inhibition at 1 µM (FMS (CSF1R)): 15.4%
- inhibition at 1 µM (FGFR3): 11.1%
- inhibition at 1 µM (p38α): 10.6%
- inhibition at 1 µM (TRKC(NTRK3)): 8.57%
- inhibition at 1 µM (NEK9): 5.11%
- inhibition at 1 µM (CSK): 3.29%
- inhibition at 1 µM (PAK2): 3.22%
- inhibition at 1 µM (HGK): 2.58%
- inhibition at 1 µM (DAPK1): 2.52%
- inhibition at 1 µM (IKK-alpha(CHUK)): 2.35%
- inhibition at 1 µM (PYK2): 2.11%
- inhibition at 1 µM (BRK): 1.91%
- inhibition at 1 µM (SGK3): 1.58%
- inhibition at 1 µM (INSR): 0.8%
- inhibition at 1 µM (MAP2K1): 0.59%
- inhibition at 1 µM (PLK1): 0.59%
- inhibition at 1 µM (NPM1-ALK): 0.37%
- inhibition at 1 µM (ALK4): 0.23%
- inhibition at 1 µM (GSK3β): -0.37%
- inhibition at 1 µM (AKT3): -0.52%
- inhibition at 1 µM (BRAF): -0.93%
- inhibition at 1 µM (CDK1/CycA2): -1.02%
- inhibition at 1 µM (DYRK1A): -1.23%
- inhibition at 1 µM (EPHB2): -3.12%
- inhibition at 1 µM (IRR): -3.5%
- inhibition at 1 µM (TAOK2): -3.76%
- inhibition at 1 µM (RON): -4.53%
- inhibition at 1 µM (KDR (VEGFR2)): -5.37%
- inhibition at 1 µM (CDK5/p25NCK): -5.5%
- inhibition at 1 µM (AXL): -7.53%
- inhibition at 1 µM (CK2α2/β): -7.98%
- inhibition at 1 µM (YSK1): -8.51%
- inhibition at 1 µM (TNIK): -13.4%
